# According to patent US20080318933A1, “5-Sulfonyl-1-Piperidinyl Substituted Indole Derivatives as 5-Ht6 Receptor Antagonists for the Treatment of Cns Disorders” (Glaxo Group Limited, priority 2004, published 2008):
# Where a name gives a salt, the structure may show the parent alone.
# Target: T1, human cloned 5-HT6 receptors (Homo sapiens, UniProt P50406)
# T1 construct: expressed in transfected cells; host or cells: HeLa cells expressing cloned human 5-HT6 receptor (membranes)
# Experiment: Cyclase assay (cAMP production in membranes of HeLa 5HT6 cells, 5-HT stimulated)
# Type: biochemical
# Details: 5-HT at 4xEC50, functional Ki by Cheng-Prusoff, read-out: pKi values (converted)
# Description: 0.5 μl of test compound in 100% dimethylsulfoxide (DMSO) was added to a white, solid 384 well assay plate (for dose response measurements the top of the concentration range is 7.5 μM final). 10 μl of washed membranes of HeLa 5HT6 cells (for preparation see WO 98/27081) in basic buffer (50 mM HEPES pH 7.4 (KOH), 10 mM MgCl2, 100 mM NaCl, 10 μM 3-isobutyl-1-methylxanthine (IBMX) (Sigma-Aldrich)) was added to all wells followed by 10 μl 2×ATP buffer (i.e. basic buffer containing 3 mM ATP) with 5-HT (at a concentration equivalent to a dose response of 4×EC50). The resultant mixture was then incubated at room temperature for 30-45 minutes to allow cAMP production. cAMP production was then measured using the DiscoveRX™ HitHunter™ chemiluminescence cAMP assay kit (DiscoveRx Corporation, 42501 Albrae Street, Fremont, Calif. 94538; Product Code: 90-0004L) or any other suitable cAMP measurement assay.
# IC50 values were estimated from arbitrary designated unit (ADU) measurements from a Perkin Elmer Viewlux instrument using a four parameter logistic curve fit within EXCEL (Bowen, W. P. and Jerman, J. C. (1995), Nonlinear regression using spreadsheets. Trends in Pharmacol. Sci., 16, 413-417). Functional Ki values were calculated using the method of Cheng, Y. C. and Prussof, W. H. (Biochemical Pharmacol (1973) 22 3099-3108). plC50 and fpKi are the negative log 10 of the molar IC50 and functional Ki respectively.
# T1 sequence (P50406 whole entry): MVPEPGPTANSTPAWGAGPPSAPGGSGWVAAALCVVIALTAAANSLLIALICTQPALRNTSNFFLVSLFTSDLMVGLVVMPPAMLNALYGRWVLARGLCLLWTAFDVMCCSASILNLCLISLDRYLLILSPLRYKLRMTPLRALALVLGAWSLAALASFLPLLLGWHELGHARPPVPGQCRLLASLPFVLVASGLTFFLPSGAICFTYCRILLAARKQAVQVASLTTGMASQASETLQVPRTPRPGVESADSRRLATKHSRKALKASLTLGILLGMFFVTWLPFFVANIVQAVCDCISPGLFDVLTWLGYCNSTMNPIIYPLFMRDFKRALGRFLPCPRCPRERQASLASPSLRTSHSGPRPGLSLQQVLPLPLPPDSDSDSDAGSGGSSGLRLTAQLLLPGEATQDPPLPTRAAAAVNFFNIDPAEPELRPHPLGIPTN
row,SMILES,Ki [nM]
1,"O=S(=O)(c1ccccc1)c1ccc2c(ccn2C2CCNCC2)c1 [Example E1, 5-(Phenylsulfonyl)-1-(4-piperidinyl)-1H-indole hydrochloride]",≤ 10
2,"O=S(=O)(c1ccc(F)cc1)c1ccc2c(c1)CCN2C1CCNCC1 [Example E15a, 5-[(4-Fluorophenyl)sulfonyl]-1-(4-piperidinyl)-2,3-dihydro-1H-indole hydrochloride]",≤ 10
3,"COc1cccc(S(=O)(=O)c2ccc3c(c2)CCN3C2CCNCC2)c1 [Example E23, 5-{[3-(Methyloxy)phenyl]sulfonyl}-1-(4-piperidinyl)-2,3-dihydro-1H-indole hydrochloride]",≤ 10
4,"CN1CCC(N2CC(C)(C)c3cc(S(=O)(=O)c4ccccc4)ccc32)CC1 [Example E5, 3,3-Dimethyl-1-(1-methyl-4-piperidinyl)-5-(phenylsulfonyl)-2,3-dihydro-1H-indole hydrochloride]",< 316
5,"Cc1nc(C)c(S(=O)(=O)c2ccc3c(c2)CCN3C2CCNCC2)s1 [Example E28, 5-[(2,4-Dimethyl-1,3-thiazol-5-yl)sulfonyl]-1-(4-piperidinyl)-2,3-dihydro-1H-indole hydrochloride]",≤ 10
6,"O=S(=O)(c1cc(F)cc(F)c1)c1ccc2c(c1)CCN2C1CCNCC1 [Example E10, 5-[(3,5-Difluorophenyl)sulfonyl]-1-(4-piperidinyl)-2,3-dihydro-1H-indole hydrochloride]",≤ 10
7,"CN1CCC(N2CCc3cc(S(=O)(=O)c4ccccc4F)ccc32)CC1 [Example E48, 5-[(2-Fluorophenyl)sulfonyl]-1-(1-methyl-4-piperidinyl)-2,3-dihydro-1H-indole hydrochloride]",≤ 10
8,"CN1CCC(N2CCc3cc(S(=O)(=O)c4ccc(F)cc4)ccc32)CC1 [Example E41, 5-[(4-Fluorophenyl)sulfonyl]-1-(1-methyl-4-piperidinyl)-2,3-dihydro-1H-indole hydrochloride]",≤ 10
9,"CN1CCC(N2CCc3cc(S(=O)(=O)c4cccc(Cl)c4)ccc32)CC1 [Example E53, 5-[(3-Chlorophenyl)sulfonyl]-1-(1-methyl-4-piperidinyl)-2,3-dihydro-1H-indole hydrochloride]",≤ 10
10,"CCN1CCC(N2CCc3cc(S(=O)(=O)c4cc(F)ccc4F)ccc32)CC1 [Example E42, 5-[(2,5-Difluorophenyl)sulfonyl]-1-(1-ethyl-4-piperidinyl)-2,3-dihydro-1H-indole hydrochloride]",≤ 10
11,"CCCN1CCC(N2CCc3cc(S(=O)(=O)c4ccccc4F)ccc32)CC1 [Example E46, 5-[(2-Fluorophenyl)sulfonyl]-1-(1-propyl-4-piperidinyl)-2,3-dihydro-1H-indole hydrochloride]",≤ 10
12,"CN1CCC(n2ccc3cc(S(=O)(=O)c4ccccc4)ccc32)CC1 [Example E2, 1-(1-Methyl-4-piperidinyl)-5-(phenylsulfonyl)-1H-indole hydrochloride]",≤ 10
13,"CC(C)N1CCC(N2CCc3cc(S(=O)(=O)c4cc(F)cc(F)c4)ccc32)CC1 [Example E52, 5-[(3,5-Difluorophenyl)sulfonyl]-1-[1-(1-methylethyl)-4-piperidinyl)-2,3-dihydro-1H-indole hydrochloride]",≤ 10
14,"CN1CCC(N2CCc3cc(S(=O)(=O)c4cccc(F)c4)ccc32)CC1 [Example E47, 5-[(3-Fluorophenyl)sulfonyl]-1-(1-methyl-4-piperidinyl)-2,3-dihydro-1H-indole hydrochloride]",≤ 10
15,"CCN1CCC(N2CCc3cc(S(=O)(=O)c4ccc(F)c(F)c4)ccc32)CC1 [Example E60, 5-[(3,4-Difluorophenyl)sulfonyl]-1-(1-ethyl-4-piperidinyl)-2,3-dihydro-1H-indole hydrochloride]",≤ 10
16,"O=S(=O)(c1ccc2c(c1)CCN2C1CCNCC1)c1cc(F)ccc1F [Example E27, 5-[(2,5-Difluorophenyl)sulfonyl]-1-(4-piperidinyl)-2,3-dihydro-1H-indole hydrochloride]",≤ 10

# The remaining lines, values ahead:
row,Ki [nM],SMILES
1,≤ 10,"CCN1CCC(N2CCc3cc(S(=O)(=O)c4ccccc4)ccc32)CC1 [Example E39, 1-(1-Ethyl-4-piperidinyl)-5-(phenylsulfonyl)-2,3-dihydro-1H-indole hydrochloride]"
2,≤ 10,"CC(C)N1CCC(N2CCc3cc(S(=O)(=O)c4ccccc4)ccc32)CC1 [Example E36, 1-[1-(1-Methylethyl)-4-piperidinyl]-5-(phenylsulfonyl)-2,3-dihydro-1H-indole]"
3,≤ 10,"O=S(=O)(c1ccccc1)c1ccc2c(c1)CCN2C1CCN2CCCC2C1 (centres unmarked) [Example E6, 1-(Octahydro-7-indolizinyl)-5-(phenylsulfonyl)-2,3-dihydro-1H-indole hydrochloride]"
4,≤ 10,"CCCN1CCC(N2CCc3cc(S(=O)(=O)c4ccccc4)ccc32)CC1 [Example E40, 5-(Phenylsulfonyl)-1-(1-propyl-4-piperidinyl)-2,3-dihydro-1H-indole hydrochloride]"
5,< 316,"CC1(N2CCc3cc(S(=O)(=O)c4ccccc4)ccc32)CCNCC1 [Example E7, 1-(4-Methyl-4-piperidinyl)-5-(phenylsulfonyl)-2,3-dihydro-1H-indole hydrochloride]"
6,≤ 10,"O=S(=O)(c1ccccc1)c1cc(Cl)c2c(c1)CCN2C1CCNCC1 [Example E19a, 7-Chloro-5-(phenylsulfonyl)-1-(4-piperidinyl)-2,3-dihydro-1H-indole hydrochloride]"
7,≤ 10,"O=S(=O)(c1cccc(Cl)c1)c1ccc2c(c1)CCN2C1CCNCC1 [Example E24, 5-[(3-Chlorophenyl)sulfonyl]-1-(4-piperidinyl)-2,3-dihydro-1H-indole hydrochloride]"
8,≤ 10,"CC(C)CN1CCC(N2CCc3cc(S(=O)(=O)c4ccccc4)ccc32)CC1 [Example E37, 1-[1-(2-Methylpropyl)-4-piperidinyl]-5-(phenylsulfonyl)-2,3-dihydro-1H-indole hydrochloride]"
9,≤ 10,"O=S(=O)(c1ccccc1)c1ccc2c(c1)CCN2C1CCNCC1 [Example E3a, 5-(Phenylsulfonyl)-1-(4-piperidinyl)-2,3-dihydro-1H-indole hydrochloride]"
10,≤ 10,"CN1CCC(N2CCc3cc(S(=O)(=O)c4ccccc4)ccc32)C1 (centres unmarked) [Example E30, 1-(1-Methyl-3-pyrrolidinyl)-5-(phenylsulfonyl)-2,3-dihydro-1H-indole hydrochloride]"
